PubChem BioAssay AID463199 (Broad Institute, 2010)
Activity calls are given as the source filed them.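 Rule for the calls: active = AC50, the dose giving half-maximal effect, exceeds a fixed cutoff for a compound that rescues yeast growth under heat; inactive = the rest, inconclusive results apart.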

These compounds were tested on S. cerevisiae Burl-1 ts mutant growth, BacTiter-Glo, 38.5C 24 h (assay: restored growth of temperature-sensitive Burl-1 yeast – whole organism, S. cerevisiae, Burl-1 ts mutant, luminescence, counter-screen for SUMOylation pathway inhibitor project, dose response (AID 463199)).
For `COc1cccc(CN(C)CC2CCCN(CCc3ccc(Cl)cc3)C2)c1OC` (stereo not drawn), the AC50 was > 42 µM (inactive). `COc1ccc2c(c1)[C@H]1[C@H](CO2)[C@H](c2ccccc2)[C@]2(C)C(=O)Nc3cc(C)ccc3C(=O)N12` was tested, and the AC50 was > 42 µM (inactive). For `O=C(CSc1nnc2ccccn12)NNC(=O)c1ccc(Cl)cc1`, the AC50 was > 42 µM (inactive). `CCNc1nc(NCC)nc(SCCOC(=O)Nc2ccccc2)n1` was tested, and the AC50 was > 42 µM (inactive). With `CCOC(=O)c1sc(NC(=O)CSc2n[nH]c(-c3ccc(Cl)cc3Cl)n2)c(C#N)c1C` the AC50 was > 42 µM (inactive). `Cc1n[nH]c(=O)nc1NCc1ccc(Cl)cc1` was tested, and the AC50 was > 42 µM (inactive). `CCOc1ccc2nc(C(C)O)[nH]c2c1` (stereo not drawn) was tested, and the AC50 was > 42 µM (inactive). For `CCNc1ccccc(C(=O)/C=C/c2ccc3c(c2)OCO3)c1=O`, the AC50 was > 42 µM (inactive).
